Test results: US11819537B2, “Preventive or therapeutic method for inflammatory skin disease” (Osaka University, priority 2016, dated 2023)

Columns and labels:
[1] = tested on: TLR7/8 signals (MG6 cells); assay: Proinflammatory cytokine secretion from microglial cells stimulated with R848 (Example 2); format: cell-based, mouse; settings: R848 1 μg/ml; for increase in the amount of IL-6 secretion by R848: MHP4 7.6, 15.3 or 30.5 μM, FIG. 5a, 5c; for TLR7/8 signals: conclusion from FIG. 5
Method: The influence of the RANKL peptide on the amount of proinflammatory cytokines (IL-6 and TFNα) secreted from microglial cells by the stimulation of imidazoquinoline resiquimod (R848 produced by Invitrogen), which is a TLR7/8 ligand, was examined. The specific examination procedures were as follows.
MG6 cells (mouse-derived microglial cell line) were cultured in a DMEM medium (+4% FBS) containing MHP1 or MHP4 (final concentration: 7.6, 15.3, or 30.5 μM) and R848 (final concentration: 1 μg/ml) or a DMEM medium (+4% FBS) containing R848 (final concentration: 1 μg/ml) alone for 24 hours by a standard method. After culturing, the concentrations of IL-6 and TNFα in the medium were measured by the ELISA method. In the Examples of the present application, the ELISA method was performed using a kit (Quantikine ELISA Mouse TNF-a or Quantikine ELISA Mouse IL-6, produced by R&D Systems).

[2] = tested on: psoriatic symptoms caused by the administration of imiquimod (IMQ); assay: Imiquimod-induced psoriatic symptoms in mice, MHP4 hydrophilic petrolatum ointment (Example 8); format: in vivo; settings: MHP4 hydrophilic petrolatum ointment 375 ng/15 mg per mouse applied every day; 5% imiquimod; BALB/c male mice; FIGS. 11 to 14
Method: Specifically, the following procedure was performed according to the dosing schedule shown in FIG. 1 except that the first application of an ointment was performed 6 hours after the first imiquimod application. In Example 1, the RANKL peptide aqueous solution was administered, while a RANKL peptide ointment was administered in this example. As test animals, BALB/c 9-week-old male mice whose back hair was partially removed were prepared. 5% imiquimod (IMQ) was applied to the hair-removed portion in the back and ear of each mouse (62.5 mg per mouse) (day 0 (0 d)). 6 hours later, (1) an MHP4 hydrophilic petrolatum ointment (375 ng (MHP4)/15 mg (hydrophilic petrolatum) per mouse, n=2), hydrophilic petrolatum (control (untreated), n=2), or MCT/BBP (Marduox (tradename) ointment) (15 mg per mouse, n=2) was individually applied to the back and ear. Thereafter, imiquimod and item (1) above were applied every day (from day 1 (1 d)). […] The degree of redness in the back, the degree of white scaling in the back, and the degree of skin thickening in the back were quantified according to the description in the document (van der Fits, L. et al. Imiquimod-induced psoriasis-like skin inflammation in mice is mediated via the IL-23/IL-17 axis. J. Immunol. 182, 5836-45 (2009) (evaluation criteria: none (0), mild (1), moderate (2), severe (3), and very severe (4)). FIGS. 12 to 14 show the results.

[3] = tested on: TLR7/8 signals (THP-1 cells); assay: IL-6 secretion from macrophage cells stimulated with R848 (Example 3); format: cell-based, human; settings: for TLR7/8 signal suppression effects, MHP1 compared with hMHP4: 30.5 μM each; for TLR7/8 signal suppression effects, MHP1 compared with hMHP4 / increase in the amount of IL-6 secretion by R848: FIG. 6; for TLR7/8 signals / increase in the amount of IL-6 secretion by R848: R848 10 μg/ml; for TLR7/8 signals: conclusion from FIG. 6; for increase in the amount of IL-6 secretion by R848: peptide 30.5 μM, 24 hours, ELISA
Method: The influence of the RANKL peptide on the amount of proinflammatory cytokines (IL-6) secreted from macrophage cells by the stimulation of a TLR7/8 ligand (R848) was examined. The specific examination procedures were as follows.
THP-1 cells (human-derived macrophage cell line) were cultured in a DMEM medium (+4% FBS) containing MHP1 or hMHP4 (final concentration: 30.5 μM) and R848 (final concentration: 10 μg/ml) or a DMEM medium (+4% FBS) containing R848 (final concentration: 10 μg/ml) alone for 24 hours by a standard method. After culturing, the concentration of IL-6 in the medium was measured by the ELISA method.

NFATc1 and ACP5 mRNA = assay: Osteoclast-related mRNA expression in RAW264.7 cells, real-time RT-PCR (Example 5); format: cell-based; settings: MHP1 100 μg/ml, collected after 3 days, FIG. 8A, 8B
Method: (§1) It has recently been reported that the administration of RANKL protein to mice induces the activation of osteoclasts. Accordingly, the influence of the RANKL peptide on osteoclasts was examined. The specific examination procedures were as follows.
(§2) MHP1 (final concentration: 100 μg/ml) or RANKL protein (final concentration: 10 ng/ml) was added to a medium (DMEM medium (+4% FBS)) in which RAW264.7 cells were cultured, and the cells were collected after 10 minutes and 3 days.
(§3) For the samples collected after 10 minutes, nuclear proteins of the cells were extracted using the Nuclear Extract Kit (Active Motif), and the degree of NFκB (p65) activation was measured by the TransAM NFkB p65 Kit (Active Motif). On the other hand, for the samples collected after 3 days, the mRNA expression levels of NFATc1 and ACP5 were analyzed by real-time RT-PCR.

[4] = tested on: psoriatic symptoms caused by the administration of imiquimod (IMQ); assay: Imiquimod-induced psoriatic symptoms in mice, MHP1 aqueous solution (Example 1); format: in vivo; settings: MHP1 aqueous solution 200 μg/100 μL per mouse applied to back and ear every day; 5% imiquimod; BALB/c female mice; FIGS. 2 to 4
Method: As test animals, BALB/c 6-week-old female mice whose back hair was partially removed were prepared. 5% imiquimod (IMQ) was applied to the hair-removed portion in the back and ear of each mouse (62.5 mg per mouse) (day 0 (0 d)). One day later, (1) an MHP1 aqueous solution (200 μg/100 μL per mouse, n=2) or dH2O (control, n=2) was individually applied to the back and ear, followed by the application of (2) 5% imiquimod (IMQ) (62.5 mg per mouse (day 1 (1 d)). Thereafter, items (1) and (2) above were applied every day for 5 days (day 2 to 6 (2 d to 6 d)).
The degree of white scaling in the back was quantified in accordance with the description of the document (van der Fits, L. et al. Imiquimod-induced psoriasis-like skin inflammation in mice is mediated via the IL-23/IL-17 axis. J. Immunol. 182, 5836-45 (2009)) (evaluation criteria: none (0), mild (1), moderate (2), severe (3), and very severe (4)).
Additionally, the ear thickness was measured.

[5] = tested on: osteoclast precursor cells; assay: Osteoclast differentiation, Osteoclast Culture Kit V-2, TRAP staining (Example 6); format: cell-based; settings: 7 days
Method: Osteoclast Culture Kit V-2 (OSC33, produced by Cosmo Bio Co., Ltd.) was used. According to the manual of the kit, the culturing of osteoclast precursor cells was started in the presence of M-CSF (final concentration: 50 ng/ml) in the A and B groups, and in the presence of M-CSF (final concentration: 50 ng/ml) and MHP1 (final concentration: 30, 50, or 100 μg/ml) in the C and D groups. Thereafter, 24 hours to 7 days after the start of culturing, the A group was cultured in the presence of M-CSF (final concentration: 50 ng/ml), the B group was cultured in the presence of M-CSF (final concentration: 50 ng/ml) and RANKL protein (final concentration: 50 ng/ml), the C group was cultured in the presence of M-CSF (final concentration: 50 ng/ml) and MHP1 (final concentration: 30, 50, or 100 μg/ml), and the D group was cultured in the presence of M-CSF (final concentration: 50 ng/ml), RANKL protein (final concentration: 50 ng/ml), and MHP1 (final concentration: 30, 50, or 100 μg/ml). After culturing, the cells were subjected to TRAP staining and nuclear staining according to a standard method.

MG6 cells = assay: Stability of RANKL peptide: cytokine secretion inhibition in LPS-stimulated MG6 cells after storage (Example 7); format: cell-based, mouse
Method: The stability of the RANKL peptide was examined. The specific examination procedures were as follows.
MHP1 was dissolved in water to a concentration of 2 mg/ml, and stored at 4° C. for 208 days. Thereafter, MG6 cells (mouse-derived microglial cell line) were cultured in a DMEM medium (+4% FBS) containing MHP1 (final concentration: 100 μg/ml) and LPS (final concentration: 2 ng/ml) for 24 hours by a standard method. After culturing, the concentrations of IL-6 and TNFα in the medium were measured by the ELISA method.

NFκB (p65) = NFκB (p65) activation in RAW264.7 cells, TransAM NFkB p65 Kit (Example 5); format: cell-based; settings: MHP1 100 μg/ml, collected after 10 minutes, FIG. 8C
Method: as §1, §2, §3

Sequence: LMVYVVKTSIKIPSS (listed as Mus musculus) [MHP4]
- increase in the amount of IL-6 secretion by R848 ([1]; MHP1 30.5 μM, 24 hours, ELISA): suppressed
- TLR7/8 signals [1]: suppressed the TLR7/8 signals
- psoriasis symptoms (back photographs, degree of redness, white scaling, skin thickening) [2]: improved psoriasis symptoms

Sequence: LMVYVTKTSIKIPSS (listed as Homo sapiens) [hMHP4]
- TLR7/8 signal suppression effects, MHP1 compared with hMHP4 [3]: similar
- TLR7/8 signals [3]: suppressed the TLR7/8 signals
- increase in the amount of IL-6 secretion by R848 [3]: suppressed

Sequence: LMVYVVKTSIKIPSSHNLMKGGSTKNWSGN (listed as Mus musculus) [MHP1]
- expression of osteoclast-related mRNA (NFATc1, ACP5) (NFATc1 and ACP5 mRNA): did not promote
- psoriatic symptoms (back photographs, degree of white scaling, ear thickness) [4]: improved psoriatic symptoms
- increase in the amount of IL-6 secretion by R848 ([1]; MHP1 30.5 μM, 24 hours, ELISA): suppressed
- increase in the amount of TNFα secretion by R848 ([1]; MHP1 30.5 μM, 24 hours, ELISA, FIG. 5b): suppressed
- TLR7/8 signals [1]: suppressed the TLR7/8 signals
- TLR7/8 signal suppression effects, MHP1 compared with hMHP4 [3]: similar
- TLR7/8 signals [3]: suppressed the TLR7/8 signals
- increase in the amount of IL-6 secretion by R848 [3]: suppressed
- differentiation of osteoclasts when MHP1 was added (without RANKL protein) ([5]; M-CSF 50 ng/ml and MHP1 30, 50 or 100 μg/ml, TRAP and nuclear staining, FIG. 9 (b)): did not occur
- differentiation of osteoclasts promoted by RANKL ([5]; M-CSF 50 ng/ml, RANKL protein 50 ng/ml and MHP1 30, 50 or 100 μg/ml, TRAP staining, FIG. 9 (a)): inhibited
- stability (MG6 cells; 2 mg/ml in water, 4° C., 208 days): high
- proinflammatory cytokine (IL-6, TNFα) secretion-inhibiting effect after long-term storage (MG6 cells; MHP1 2 mg/ml in water stored at 4° C. for 208 days, then 100 μg/ml with LPS 2 ng/ml, MG6 cells, 24 hours, FIG. 10): in the same manner as MHP1 before storage
- NFκB (p65) activation (NFκB (p65)): slightly activated
